Experimental data taken from patent publication US20260041753A1, “RESPIRATORY SYNCYTIAL VIRUS SURFACE GL[…], CONJUGATES, AND USES THEREOF” (Dana-Farber Cancer Institute, Inc., priority 2023, published 2026).
Where two headings read alike, the source gives them in different places. Where a SMILES comes first, the peptide text is derived from it. Bridges are numbered along the chain shown (N, C = ends). Primed or numbered codes have the meaning given here. Where no end group is shown, it is not given here. Side-chain parts run from the residue outwards. [ ]: non-standard residue; d: D form. The star is where a group is joined. ξ: configuration not given here. thiocholesterol = thiocholesterol moiety attached via the PEG4 linker to the lysine epsilon side chain, CC(C)CCC[C@@H](C)[C@H]1CC[C@H]2[C@@H]3CC=C4C[C@@H](S*)CC[C@]4(C)[C@H]3CC[C@]12C; Acetyl(2-S-cholesteryl) = CC(C)CCC[C@@H](C)[C@H]1CC[C@H]2[C@@H]3CC=C4C[C@@H](SCC(=O)*)CC[C@]4(C)[C@H]3CC[C@]12C; Acetyl(2-S-3ξ-cholesteryl) = CC(C)CCC[C@@H](C)[C@H]1CC[C@H]2[C@@H]3CC=C4CC(SCC(=O)*)CC[C@]4(C)[C@H]3CC[C@]12C; PEG20 = NCCOCCOCCOCCOCCOCCOCCOCCOCCOCCOCCOCCOCCOCCOCCOCCOCCOCCOCCOCCOCCC(=O)O; PEG16 = NCCOCCOCCOCCOCCOCCOCCOCCOCCOCCOCCOCCOCCOCCOCCOCCOCCC(=O)O; PEG4′ = 4x polyethylene glycol linker; R8 = C=CCCCCCC[C@@](C)(N)C(=O)O; PEG4 = NCCOCCOCCOCCOCCC(=O)O; S5 = C=CCCC[C@](C)(N)C(=O)O

How the values were obtained:
[1] = system: live human Respiratory Syncytial Virus with Green Fluorescent Protein (RSV-GFP1); type: cell-based; settings: for antiviral activity in the GFP-RSV live virus assay (staple and PEG scanning): dose of 2 μM, RSV-GFP in A549 cells after 48 hours (FIG. 15); for improvement in anti-viral activity compared to the singly stapled RSV HR2 peptide of SEQ ID NO: 4: versus single staple alone with an additional 6 HR2 amino acids at the C-terminus
Method: Antiviral Efficacy Assays: The efficiency of the peptide-cholesterol conjugates of the invention in preventing and treating infection of live human Respiratory Syncytial Virus with Green Fluorescent Protein (RSV-GFP1) are evaluated in monolayer cell cultures. A549 cells plated in 384-well format are treated for 30 min with a serial dilution of stapled peptides (e.g. 1-5 […] or a fixed dose, e.g. […]), performed in quadruplicate, followed by addition of GFP-RSV live virus assay (0.75-1.25 μL of virus per well) and incubation for 48-72 hours. Infected cells are then washed with PBS. Hoechst 33342 (cell permeable nuclear dye) and DRAQ7 (cell impermeable nuclear dye) are added and the plate imaged on a Molecular Devices ImageXpress Micro Confocal Laser at 4× magnification. GFP (+) cells are counted and total GFP(+) cells or percent GFP(+) cells are plotted using Prism software (Graphpad). Cytotoxicity is determined by the ratio of DRAQ7 (+) Hoechst 33342 (+) to DRAQ7 (−) Hoechst 33342 (+) cells.

[2] = Solubility of stapled lipopeptides in buffer (FIG. 18); type: physicochemical; settings: 15 mg/mL in 15% DMSO, PBS pH 7.4
Method: Buffer conditions are 15 mg/mL in 15% DMSO, PBS pH 7.4.

[3] = pI of stapled lipopeptides; type: physicochemical
[4] = GFP-RSV live virus, A549 cells, read-out at 48 hours (FIGS. 13, 16, 17), read-out: IC50, antiviral activity in live RSV virus assay

Molecule | IC50 [1, 4] [nM] | antiviral activity in the GFP-RSV live virus assay (staple and PEG scanning) [1] | improvement in anti-viral activity compared to the singly stapled RSV HR2 peptide of SEQ ID NO: 4 [1] | other results
CC[C@H](C)[C@H](NC(=O)[C@H](Cc1ccccc1)NC(=O)[C@H](C)NC(=O)[C@H](CC(C)C)NC(=O)[C@H](CO)NC(=O)[C@H](CCC(N)=O)NC(=O)[C@H](CC(N)=O)NC(=O)[C@@H](NC(=O)[C@H](CCCCN)NC(=O)[C@]1(C)CCCC=CCCCCCC[C@@](C)(NC(=O)[C@H](CC(=O)O)NC(=O)[C@H](Cc2ccccc2)NC(C)=O)C(=O)N[C@@H](CO)C(=O)N[C@@H]([C@@H](C)CC)C(=O)N[C@@H](CO)C(=O)N[C@@H](CCC(N)=O)C(=O)N[C@@H](C(C)C)C(=O)N[C@@H](CC(N)=O)C(=O)N1)[C@@H](C)CC)C(=O)N[C@@H](CCCNC(=N)N)C(=O)N[C@@H](CCCCN)C(=O)N[C@@H](CO)C(=O)N[C@@H](CC(=O)O)C(=O)N[C@@H](CCC(=O)O)C(=O)N[C@@H](CC(C)C)C(=O)N[C@@H](CC(C)C)C(=O)N[C@@H](Cc1c[nH]cn1)C(=O)N[C@@H](CC(N)=O)C(=O)N[C@H](C(=O)N[C@@H](CCCCNC(=O)CCOCCOCCOCCOCCNC(=O)CS[C@H]1CC[C@@]2(C)C(=CC[C@H]3[C@@H]4CC[C@H]([C@H](C)CCCC(C)C)[C@@]4(C)CC[C@@H]32)C1)C(N)=O)C(C)C [SEQ ID NO: 5, FD8SISQVNXKINQSLAFIRKSDELLHNV*] (Ac-FD[R8]SISQVN[S5]KINQSLAFIRKSDELLHNVK([PEG4-Acetyl(2-S-cholesteryl)])-NH2; staple 3-10) | 130 | potent activity | an order of magnitude | IC50 ([1]; live RSV virus (FIG. 13), read-out: IC50, infectivity assay using live RSV virus): 130 nM
CC[C@H](C)[C@H](NC(=O)[C@H](CO)NC(=O)[C@H](C)NC(=O)[C@H](CC(=O)O)NC(=O)[C@H](Cc1ccccc1)NC(C)=O)C(=O)N[C@@H](CO)C(=O)N[C@@H](CCC(N)=O)C(=O)N[C@H](C(=O)N[C@@H](CC(N)=O)C(=O)N[C@@H](CCC(=O)O)C(=O)N[C@@H](CCCCN)C(=O)N[C@H](C(=O)N[C@@H](CC(N)=O)C(=O)N[C@@H](CCC(N)=O)C(=O)N[C@@H](CO)C(=O)N[C@@H](CC(C)C)C(=O)N[C@]1(C)CCCCCCC=CCCC[C@@](C)(C(=O)N[C@@H](CC(C)C)C(=O)N[C@@H](CC(C)C)C(=O)N[C@@H](Cc2c[nH]cn2)C(=O)N[C@@H](CC(N)=O)C(=O)N[C@H](C(=O)N[C@@H](CCCCNC(=O)CCOCCOCCOCCOCCOCCOCCOCCOCCOCCOCCOCCOCCOCCOCCOCCOCCOCCOCCOCCOCCNC(=O)CS[C@H]2CC[C@@]3(C)C(=CC[C@H]4[C@@H]5CC[C@H]([C@H](C)CCCC(C)C)[C@@]5(C)CC[C@@H]43)C2)C(N)=O)C(C)C)NC(=O)[C@H](CC(=O)O)NC(=O)[C@H](CO)NC(=O)[C@H](CCCCN)NC(=O)[C@H](CCCNC(=N)N)NC(=O)[C@H]([C@@H](C)CC)NC(=O)[C@H](Cc2ccccc2)NC1=O)[C@@H](C)CC)C(C)C [PEG20-thichol SEQ ID NO: 21] (Ac-FDASISQVNEKINQSL[R8]FIRKSD[S5]LLHNVK([PEG20-Acetyl(2-S-cholesteryl)])-NH2; staple 17-24) | 8.2 | – | – | –
SDEFDASISQVNEKINQSL8FIRKSDXLLHNV* (SDEFDASISQVNEKINQSL[R8]FIRKSD[S5]LLHNV; staple 20-27; also: C-terminal linker-lipid (*), exact composition not fixed) [SEQ ID NO: 281] | – | – | – | solubility [2]: fully soluble; solubility ([2]; listed as SEQ ID NO:21 with three native N-terminal residues “SDE”): complete solubility; pI [3]: 4.7
PEG20-thiochol SEQ IQ NO: 5: SEQ ID NO:51 with PEG(n)-thiocholesterol linked via a C-terminal lysine, n is 20 (FDXSISQVNXKINQSLAFIRKSDELLHNVK; not fully specified; C-terminal Lys-PEG20-thiocholesterol; SITE 3 (R)-alpha-(7'-octenyl)alanine; SITE 10 (S)-alpha-(4'-pentenyl)alanine; SITE 30 Residue attached to 20x polyethylene glycol thiocholesterol) | 60 | – | greater than two orders of magnitude | –
8DASISQXNEKINQSLAFIRKSDELLHNV* ([R8]DASISQ[S5]NEKINQSLAFIRKSDELLHNVK([PEG4′-thiocholesterol]); staple 1-8) [SEQ ID NO: 6, * =Lys(epsilon-(PEG)4-thiocholesterol)] | – | potent activity | – | –
PEG16-thiochol SEQ IQ NO: 5: SEQ ID NO:51 with PEG(n)-thiocholesterol linked via a C-terminal lysine, n is 16 (FDXSISQVNXKINQSLAFIRKSDELLHNVK; not fully specified; C-terminal Lys-PEG16-thiocholesterol; SITE 3 (R)-alpha-(7'-octenyl)alanine; SITE 10 (S)-alpha-(4'-pentenyl)alanine; SITE 30 Residue attached to 16x polyethylene glycol thiocholesterol) | 49 | – | greater than two orders of magnitude | –
CC[C@H](C)[C@H](NC(=O)[C@H](CO)NC(=O)[C@H](C)NC(=O)[C@H](CC(=O)O)NC(=O)[C@H](Cc1ccccc1)NC(C)=O)C(=O)N[C@@H](CO)C(=O)N[C@@H](CCC(N)=O)C(=O)N[C@H](C(=O)N[C@@H](CC(N)=O)C(=O)N[C@@H](CCC(=O)O)C(=O)N[C@@H](CCCCN)C(=O)N[C@H](C(=O)N[C@@H](CC(N)=O)C(=O)N[C@@H](CCC(N)=O)C(=O)N[C@@H](CO)C(=O)N[C@@H](CC(C)C)C(=O)N[C@]1(C)CCCCCCC=CCCC[C@@](C)(C(=O)N[C@@H](CC(C)C)C(=O)N[C@@H](CC(C)C)C(=O)N[C@@H](Cc2c[nH]cn2)C(=O)N[C@@H](CC(N)=O)C(=O)N[C@H](C(=O)N[C@@H](CCCCNC(=O)CCOCCOCCOCCOCCNC(=O)CSC2CC[C@@]3(C)C(=CC[C@H]4[C@@H]5CC[C@H]([C@H](C)CCCC(C)C)[C@@]5(C)CC[C@@H]43)C2)C(N)=O)C(C)C)NC(=O)[C@H](CC(=O)O)NC(=O)[C@H](CO)NC(=O)[C@H](CCCCN)NC(=O)[C@H](CCCNC(=N)N)NC(=O)[C@H]([C@@H](C)CC)NC(=O)[C@H](Cc2ccccc2)NC1=O)[C@@H](C)CC)C(C)C (stereo partly drawn) [SEQ ID NO: 21, FDASISQVNEKINQSL8FIRKSDXLLHNV*] (Ac-FDASISQVNEKINQSL[R8]FIRKSD[S5]LLHNVK([PEG4-Acetyl(2-S-3ξ-cholesteryl)])-NH2; staple 17-24) | – | – | – | solubility [2]: visible pellet; solubility ([2]; listed as SEQ ID NO:21): Poor solubility
CC[C@H](C)[C@H](NC(=O)[C@H](CO)NC(=O)[C@H](C)NC(=O)[C@H](CC(=O)O)NC(=O)[C@H](Cc1ccccc1)NC(C)=O)C(=O)N[C@@H](CO)C(=O)N[C@@H](CCC(N)=O)C(=O)N[C@H](C(=O)N[C@@H](CC(N)=O)C(=O)N[C@@H](CCC(=O)O)C(=O)N[C@@H](CCCCN)C(=O)N[C@H](C(=O)N[C@@H](CC(N)=O)C(=O)N[C@@H](CCC(N)=O)C(=O)N[C@@H](CO)C(=O)N[C@@H](CC(C)C)C(=O)N[C@]1(C)CCCCCCC=CCCC[C@@](C)(C(=O)N[C@@H](CC(C)C)C(=O)N[C@@H](CC(C)C)C(=O)N[C@@H](Cc2c[nH]cn2)C(=O)N[C@@H](CC(N)=O)C(=O)N[C@H](C(=O)N[C@@H](CCCCNC(=O)CCOCCOCCOCCOCCOCCOCCOCCOCCOCCOCCOCCOCCOCCOCCOCCOCCNC(=O)CS[C@H]2CC[C@@]3(C)C(=CC[C@H]4[C@@H]5CC[C@H]([C@H](C)CCCC(C)C)[C@@]5(C)CC[C@@H]43)C2)C(N)=O)C(C)C)NC(=O)[C@H](CC(=O)O)NC(=O)[C@H](CO)NC(=O)[C@H](CCCCN)NC(=O)[C@H](CCCNC(=N)N)NC(=O)[C@H]([C@@H](C)CC)NC(=O)[C@H](Cc2ccccc2)NC1=O)[C@@H](C)CC)C(C)C [PEG16-thiochol SEQ ID NO: 21] (Ac-FDASISQVNEKINQSL[R8]FIRKSD[S5]LLHNVK([PEG16-Acetyl(2-S-cholesteryl)])-NH2; staple 17-24) | 18 | – | – | –
FDASISQVNEKINQSLAFI8KSDELLXNV* (FDASISQVNEKINQSLAFI[R8]KSDELL[S5]NVK([PEG4′-thiocholesterol]); staple 20-27 (inferred)) [SEQ ID NO: 24, * =Lys(epsilon-(PEG)4-thiocholesterol)] | – | potent activity | – | –
FDASISQVN8KINQSLXFIRKSDELLHNV* (FDASISQVNXKINQSLXFIRKSDELLHNVK; not fully specified; Lys(epsilon-(PEG)4-thiocholesterol); non-natural residues 8, X; SITE 10 (R)-alpha-(7'-octenyl)alanine; SITE 17 (S)-alpha-(4'-pentenyl)alanine; SITE 30 Residue side chain modified at the epsilon carbon with 4x polyethylene glycol attached to thiocholesterol) [SEQ ID NO: 14] | – | potent activity | – | –
